Common to all, as to assay: NCI-60 cell line screen, 48 h
Experiment [1] has as its system 786-0.
The test system of experiment [2] is A498.
Experiment [3] deals with A549.
Experiment [4] concerns BT-549.
Experiment [5] concerns CAKI-1.
The subject of experiment [6] is CCRF-CEM.
The subject of experiment [7] is HCC 2998.
In experiment [8] the test system is HL-60.
Experiment [9] deals with LOX IMVI.
Experiment [10] has as its system MCF7.
Experiment [11] concerns MDA-N.
Experiment [12] relates to NCI-H23.
Experiment [13] relates to NCI-H460.
Experiment [14] deals with OVCAR-4.
The subject of experiment [15] is SF-295.
Experiment [16] relates to SK-MEL-5.
The subject of experiment [17] is SN12C.
In experiment [18] the test system is SNB-75.
Experiment [19] deals with SR.
Experiment [20] concerns UACC-62.

SMILES strings stand for the structures.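 Interpolation was linear, between the two tested concentrations surrounding the appropriate level; five concentrations were tested over 48 hours in 96-well plates. At the GI50, growth is halved.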 Calls of active or inactive are those of the source. Rule as the data show it: active = GI50 up to about 1.1 µM and inactive = higher. Some results are limits rather than exact numbers.

In the case of `COc1cc(CC(C)C(C)Cc2ccc(O)c(OC)c2)ccc1O` (stereo not given) [DIHYDROGUAIARETIC ACID], the GI50 was 19.9 µM (inactive) in [1]; 18.5 µM (inactive) in experiment [2]; 14.5 µM (inactive) in experiment [3]; 15.1 µM (inactive) in experiment [4]; 16.9 µM (inactive) in experiment [5]; 13.3 µM (inactive) in experiment [6]. For the same molecule, the GI50 in experiment [7] was 18.5 µM (inactive); in experiment [8], 9.4 µM (inactive); in [9], 11.5 µM (inactive); in experiment [10], 17.9 µM (inactive); in experiment [11] it was 17.3 µM (inactive); in experiment [12], 16.9 µM (inactive). The GI50 in experiment [13] was 14.5 µM (inactive); in [14], 20.1 µM (inactive); in [15], 17.2 µM (inactive); in experiment [16] it was 8.55 µM (inactive); in [17], 15.4 µM (inactive); in [18], 14.2 µM (inactive). Also, the GI50 in [19] was 9.2 µM (inactive); in [20] it was 16.7 µM (inactive).
For `OC(CC(CC(O)(C(F)(F)F)C(F)(F)F)=NN=C(CC(O)(C(F)(F)F)C(F)(F)F)CC(O)(C(F)(F)F)C(F)(F)F)(C(F)(F)F)C(F)(F)F`, the GI50 in experiment [1], in experiment [2], in experiment [3], in experiment [4], in experiment [5] and in experiment [6] was > 10 µM (inactive) each time. Besides, the GI50 in experiment [7], in experiment [8], in [9], in experiment [10], in experiment [11] and in experiment [12] was > 10 µM (inactive) in each case. In addition, the GI50 in experiment [13], in experiment [14], in [15], in experiment [16], in experiment [17] and in [18] was > 10 µM (inactive) each time. The GI50 in experiment [19] and in experiment [20] was > 10 µM (inactive) in each case.
On to `COc1cc2cc(C(=O)N3CC(CCl)c4ccc(N(C)C)cc43)[nH]c2c(OC)c1OC` (stereo not given), for which the GI50 is 0.0361 µM (active) in experiment [1]; 0.0153 µM (active) in experiment [2]; 0.0194 µM (active) in experiment [3]; 0.131 µM (active) in [4]; 0.0395 µM (active) in [5]; 0.0547 µM (active) in experiment [6]. Also, the GI50 is 0.0303 µM (active) in [7]; 0.0277 µM (active) in experiment [8]; 0.0755 µM (active) in experiment [9]; 0.0207 µM (active) in experiment [10]; 0.185 µM (active) in [11]; 0.0303 µM (active) in [12]. Further, the GI50 was 0.0269 µM (active) in experiment [13]; 0.124 µM (active) in experiment [14]; 0.0589 µM (active) in experiment [15]; 0.131 µM (active) in [16]; 0.198 µM (active) in [17]; 0.29 µM (active) in experiment [18]. The GI50 in [19] is 0.0151 µM (active); in experiment [20] it was 0.0592 µM (active).
In the case of `O=C(O)c1cccc(CC(Br)C(=O)O)c1` (stereo not given), the GI50 in [1], in [2], in experiment [3], in experiment [4], in [5] and in experiment [6] was > 100 µM (inactive) in each case. In addition, the GI50 in [7], in experiment [8], in [9], in experiment [10], in experiment [11] and in experiment [12] was > 100 µM (inactive) each time. Further, the GI50 in experiment [13], in experiment [14], in [15], in experiment [16], in experiment [17] and in experiment [18] was > 100 µM (inactive) in each case. The GI50 in experiment [19] and in experiment [20] was > 100 µM (inactive) throughout.
As to `CCn1c2ccc(C(=O)CCCN3CCCCC3)cc2c2cc(C(=O)CCCN3CCCCC3)ccc21`, the GI50 was 0.938 µM (active) in experiment [1]; 5.7 µM (inactive) in [2]; 1.81 µM (inactive) in experiment [3]; 16.9 µM (inactive) in experiment [4]; 3.48 µM (inactive) in experiment [5]; 2.4 µM (inactive) in experiment [6]. For the same molecule, the GI50 is 5.94 µM (inactive) in [7]; 13.2 µM (inactive) in experiment [8]; 1.86 µM (inactive) in experiment [9]; 1.58 µM (inactive) in [10]; 2.22 µM (inactive) in [11]; 2.13 µM (inactive) in experiment [12]. For the same molecule, the GI50 in [13] was 0.998 µM (active); in experiment [14], 1.33 µM (inactive); in [15], 2.43 µM (inactive); in experiment [16] it was 1.56 µM (inactive); in [17], 4.16 µM (inactive); in experiment [18], 2.24 µM (inactive). Besides, the GI50 in experiment [19] is 2.45 µM (inactive); in experiment [20], 23 µM (inactive).
`O=C1NC(=O)C(c2c[nH]c3ccccc23)=C1c1cn(C(c2ccccc2)(c2ccccc2)c2ccccc2)cn1`: the GI50 in experiment [1] is 6.52 µM (inactive); in experiment [2], 5.32 µM (inactive); in experiment [3] it was 3.14 µM (inactive); in [4], 12.7 µM (inactive); in [5], 35.4 µM (inactive); in [6] it was 3.98 µM (inactive). The GI50 in [7] is 4.63 µM (inactive); in experiment [8], 2.9 µM (inactive); in experiment [9], 6.95 µM (inactive); in [10] it was 3.05 µM (inactive); in experiment [11] it was 4.75 µM (inactive); in [12] it was 6.35 µM (inactive). For the same molecule, the GI50 in experiment [13] is 3.66 µM (inactive); in [14] it was 4.06 µM (inactive); in [15], 5.27 µM (inactive); in experiment [16], 7.57 µM (inactive); in experiment [17], 5.7 µM (inactive); in [18], 10.2 µM (inactive). Besides, the results for the GI50 in experiment [19] and in experiment [20] were 2.7 µM (inactive) and 12.5 µM (inactive), respectively.

(Values after ChEMBL document CHEMBL1201862, “PubChem BioAssay data set” (2004).)
